Test results from article PMC9571063 (Molecules, 2022).
Read-outs that look alike come from different tables or passages of the source.

Key:
ACVR1 = target: T1, ACVR1 (Homo sapiens, UniProt Q04771); test: KINOMEscan; format: binding; details: read-out: Percent Control
T1 construct: purchased Eurofins DiscoverX KINOMEscan (scanMAX 468)

ADCK4 = target: T2, ADCK4 (Homo sapiens, UniProt Q96D53); test: KINOMEscan; format: binding; details: read-out: Percent Control
T2 construct: purchased Eurofins DiscoverX KINOMEscan (scanMAX 468)

AMPK-alpha2 = target: T3, AMPK-alpha2 (Homo sapiens, UniProt P54646); test: KINOMEscan; format: binding; details: read-out: Percent Control
T3 construct: purchased Eurofins DiscoverX KINOMEscan (scanMAX 468)

CAMK1D = target: T4, CAMK1D (Homo sapiens, UniProt Q8IU85); test: KINOMEscan; format: binding; details: read-out: Percent Control
T4 construct: purchased Eurofins DiscoverX KINOMEscan (scanMAX 468)
T4 sequence (Q8IU85 whole entry): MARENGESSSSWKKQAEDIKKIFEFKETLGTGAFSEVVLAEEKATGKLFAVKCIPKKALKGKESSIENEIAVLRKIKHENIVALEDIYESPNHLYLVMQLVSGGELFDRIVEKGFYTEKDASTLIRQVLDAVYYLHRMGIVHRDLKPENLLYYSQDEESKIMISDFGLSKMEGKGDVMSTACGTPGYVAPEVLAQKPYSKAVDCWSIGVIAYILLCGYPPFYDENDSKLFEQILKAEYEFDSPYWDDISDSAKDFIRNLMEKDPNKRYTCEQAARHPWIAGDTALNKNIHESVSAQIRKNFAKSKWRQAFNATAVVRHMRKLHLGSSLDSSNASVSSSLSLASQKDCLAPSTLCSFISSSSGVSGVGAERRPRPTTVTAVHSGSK

CAMK1G = target: T5, CAMK1G (Homo sapiens, UniProt Q96NX5); test: KINOMEscan; format: binding; details: read-out: Percent Control
T5 construct: purchased Eurofins DiscoverX KINOMEscan (scanMAX 468)

CDK2 = target: T6, CDK2 (Homo sapiens, UniProt P24941); test: KINOMEscan; format: binding; details: read-out: Percent Control
T6 construct: purchased Eurofins DiscoverX KINOMEscan (scanMAX 468)

CDK3 = target: T7, CDK3 (Homo sapiens, UniProt Q00526); test: KINOMEscan; format: binding; details: read-out: Percent Control
T7 construct: purchased Eurofins DiscoverX KINOMEscan (scanMAX 468)
T7 sequence (Q00526 whole entry): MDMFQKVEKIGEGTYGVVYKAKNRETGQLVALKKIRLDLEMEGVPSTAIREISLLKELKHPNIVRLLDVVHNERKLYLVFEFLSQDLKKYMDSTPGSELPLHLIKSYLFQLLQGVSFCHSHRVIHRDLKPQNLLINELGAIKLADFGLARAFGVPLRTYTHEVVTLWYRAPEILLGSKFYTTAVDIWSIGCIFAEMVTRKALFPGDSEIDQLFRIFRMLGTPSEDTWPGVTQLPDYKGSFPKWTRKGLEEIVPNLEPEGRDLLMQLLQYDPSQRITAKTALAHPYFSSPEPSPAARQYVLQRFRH

CDK4-cyclinD1 = target: T8, CDK4-cyclinD1 (Homo sapiens, UniProt P11802); test: KINOMEscan; format: binding; details: read-out: Percent Control
T8 construct: purchased Eurofins DiscoverX KINOMEscan (scanMAX 468)

CDK7 = target: T9, CDK7 (Homo sapiens, UniProt P50613); test: KINOMEscan; format: binding; details: read-out: Percent Control
T9 construct: purchased Eurofins DiscoverX KINOMEscan (scanMAX 468)

CSNK2A2 = target: T10, CSNK2A2 (Homo sapiens, UniProt P19784); test: KINOMEscan; format: binding; details: read-out: Percent Control
T10 construct: purchased Eurofins DiscoverX KINOMEscan (scanMAX 468)

EIF2AK1 = target: T11, EIF2AK1 (Homo sapiens, UniProt Q9BQI3); test: KINOMEscan; format: binding; details: read-out: Percent Control
T11 construct: purchased Eurofins DiscoverX KINOMEscan (scanMAX 468)

EPHA8 = target: T12, EPHA8 (Homo sapiens, UniProt P29322); test: KINOMEscan; format: binding; details: read-out: Percent Control
T12 construct: purchased Eurofins DiscoverX KINOMEscan (scanMAX 468)

EPHB1 = target: T13, EPHB1 (Homo sapiens, UniProt P54762); test: KINOMEscan; format: binding; details: read-out: Percent Control
T13 construct: purchased Eurofins DiscoverX KINOMEscan (scanMAX 468)

ERBB4 = target: T14, ERBB4 (Homo sapiens, UniProt Q15303); test: KINOMEscan; format: binding; details: read-out: Percent Control
T14 construct: purchased Eurofins DiscoverX KINOMEscan (scanMAX 468)
T14 sequence (Q15303 26-1308): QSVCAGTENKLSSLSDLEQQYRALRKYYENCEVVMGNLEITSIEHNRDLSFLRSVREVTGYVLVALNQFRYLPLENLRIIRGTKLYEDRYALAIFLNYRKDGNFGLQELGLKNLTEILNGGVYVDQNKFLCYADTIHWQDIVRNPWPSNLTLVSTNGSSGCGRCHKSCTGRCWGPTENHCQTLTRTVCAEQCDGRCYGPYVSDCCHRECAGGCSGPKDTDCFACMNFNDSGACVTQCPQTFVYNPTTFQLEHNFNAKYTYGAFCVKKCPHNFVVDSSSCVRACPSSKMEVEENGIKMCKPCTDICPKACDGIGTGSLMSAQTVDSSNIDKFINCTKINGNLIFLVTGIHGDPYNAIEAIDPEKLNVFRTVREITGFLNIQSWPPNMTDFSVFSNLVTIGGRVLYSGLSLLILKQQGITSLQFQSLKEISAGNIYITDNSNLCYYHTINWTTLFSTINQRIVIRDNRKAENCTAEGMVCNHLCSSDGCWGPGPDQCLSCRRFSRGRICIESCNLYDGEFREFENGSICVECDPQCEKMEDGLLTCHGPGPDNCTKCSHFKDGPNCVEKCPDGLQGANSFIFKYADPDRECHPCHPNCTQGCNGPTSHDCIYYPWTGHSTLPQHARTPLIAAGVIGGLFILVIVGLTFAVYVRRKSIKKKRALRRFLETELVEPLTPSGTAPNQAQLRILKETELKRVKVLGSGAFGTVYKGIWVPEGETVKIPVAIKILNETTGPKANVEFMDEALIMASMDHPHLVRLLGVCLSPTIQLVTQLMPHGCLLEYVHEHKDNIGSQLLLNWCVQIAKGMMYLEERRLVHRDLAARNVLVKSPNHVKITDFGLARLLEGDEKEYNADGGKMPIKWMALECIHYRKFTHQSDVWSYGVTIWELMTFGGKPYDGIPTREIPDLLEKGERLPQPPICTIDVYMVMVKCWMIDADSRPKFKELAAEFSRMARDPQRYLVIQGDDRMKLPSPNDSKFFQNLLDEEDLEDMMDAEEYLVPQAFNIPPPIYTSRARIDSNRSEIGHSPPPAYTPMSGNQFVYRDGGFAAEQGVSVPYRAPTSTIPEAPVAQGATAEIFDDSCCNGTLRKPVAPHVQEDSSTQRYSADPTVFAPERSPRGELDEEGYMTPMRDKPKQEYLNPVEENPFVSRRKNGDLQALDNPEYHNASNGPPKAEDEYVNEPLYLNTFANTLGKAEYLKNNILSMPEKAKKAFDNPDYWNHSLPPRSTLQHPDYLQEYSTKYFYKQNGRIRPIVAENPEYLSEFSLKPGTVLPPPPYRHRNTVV

ERK1 = target: T15, ERK1 (Homo sapiens, UniProt P27361); test: KINOMEscan; format: binding; details: read-out: Percent Control
T15 construct: purchased Eurofins DiscoverX KINOMEscan (scanMAX 468)

FER = target: T16, FER (Homo sapiens, UniProt P16591); test: KINOMEscan; format: binding; details: read-out: Percent Control
T16 construct: purchased Eurofins DiscoverX KINOMEscan (scanMAX 468)

FGFR4 = target: T17, FGFR4 (Homo sapiens, UniProt P22455); test: KINOMEscan; format: binding; details: read-out: Percent Control
T17 construct: purchased Eurofins DiscoverX KINOMEscan (scanMAX 468)

GCN2(Kin.Dom.2,S808G) = target: T18, GCN2(Kin.Dom.2,S808G) (Homo sapiens, UniProt Q9P2K8, S808G); test: KINOMEscan; format: binding; details: read-out: Percent Control
T18 construct: GCN2(Kin.Dom.2,S808G); purchased Eurofins DiscoverX KINOMEscan (scanMAX 468)

GRK1 = target: T19, GRK1 (Homo sapiens, UniProt Q15835); test: KINOMEscan; format: binding; details: read-out: Percent Control
T19 construct: purchased Eurofins DiscoverX KINOMEscan (scanMAX 468)

HUNK = target: T20, HUNK (Homo sapiens, UniProt P57058); test: KINOMEscan; format: binding; details: read-out: Percent Control
T20 construct: purchased Eurofins DiscoverX KINOMEscan (scanMAX 468)

IGF1R = target: T21, IGF1R (Homo sapiens, UniProt P08069); test: KINOMEscan; format: binding; details: read-out: Percent Control
T21 construct: purchased Eurofins DiscoverX KINOMEscan (scanMAX 468)

IKK-alpha = target: T22, IKK-alpha (Homo sapiens, UniProt O15111); test: KINOMEscan; format: binding; details: read-out: Percent Control
T22 construct: purchased Eurofins DiscoverX KINOMEscan (scanMAX 468)

IKK-beta = target: T23, IKK-beta (Homo sapiens, UniProt O14920); test: KINOMEscan; format: binding; details: read-out: Percent Control
T23 construct: purchased Eurofins DiscoverX KINOMEscan (scanMAX 468)

MAP4K2 = target: T24, MAP4K2 (Homo sapiens, UniProt Q12851); test: KINOMEscan; format: binding; details: read-out: Percent Control
T24 construct: purchased Eurofins DiscoverX KINOMEscan (scanMAX 468)

MET = target: T25, MET (Homo sapiens, UniProt P08581); test: KINOMEscan; format: binding; details: read-out: Percent Control
T25 construct: purchased Eurofins DiscoverX KINOMEscan (scanMAX 468)

MKNK2 = target: T26, MKNK2 (Homo sapiens, UniProt Q9HBH9); test: KINOMEscan; format: binding; details: read-out: Percent Control
T26 construct: purchased Eurofins DiscoverX KINOMEscan (scanMAX 468)

MLK1 = target: T27, MLK1 (Homo sapiens, UniProt P80192); test: KINOMEscan; format: binding; details: read-out: Percent Control
T27 construct: purchased Eurofins DiscoverX KINOMEscan (scanMAX 468)

MRCKB = target: T28, MRCKB (Homo sapiens, UniProt Q9Y5S2); test: KINOMEscan; format: binding; details: read-out: Percent Control
T28 construct: purchased Eurofins DiscoverX KINOMEscan (scanMAX 468)
T28 sequence (Q9Y5S2 whole entry): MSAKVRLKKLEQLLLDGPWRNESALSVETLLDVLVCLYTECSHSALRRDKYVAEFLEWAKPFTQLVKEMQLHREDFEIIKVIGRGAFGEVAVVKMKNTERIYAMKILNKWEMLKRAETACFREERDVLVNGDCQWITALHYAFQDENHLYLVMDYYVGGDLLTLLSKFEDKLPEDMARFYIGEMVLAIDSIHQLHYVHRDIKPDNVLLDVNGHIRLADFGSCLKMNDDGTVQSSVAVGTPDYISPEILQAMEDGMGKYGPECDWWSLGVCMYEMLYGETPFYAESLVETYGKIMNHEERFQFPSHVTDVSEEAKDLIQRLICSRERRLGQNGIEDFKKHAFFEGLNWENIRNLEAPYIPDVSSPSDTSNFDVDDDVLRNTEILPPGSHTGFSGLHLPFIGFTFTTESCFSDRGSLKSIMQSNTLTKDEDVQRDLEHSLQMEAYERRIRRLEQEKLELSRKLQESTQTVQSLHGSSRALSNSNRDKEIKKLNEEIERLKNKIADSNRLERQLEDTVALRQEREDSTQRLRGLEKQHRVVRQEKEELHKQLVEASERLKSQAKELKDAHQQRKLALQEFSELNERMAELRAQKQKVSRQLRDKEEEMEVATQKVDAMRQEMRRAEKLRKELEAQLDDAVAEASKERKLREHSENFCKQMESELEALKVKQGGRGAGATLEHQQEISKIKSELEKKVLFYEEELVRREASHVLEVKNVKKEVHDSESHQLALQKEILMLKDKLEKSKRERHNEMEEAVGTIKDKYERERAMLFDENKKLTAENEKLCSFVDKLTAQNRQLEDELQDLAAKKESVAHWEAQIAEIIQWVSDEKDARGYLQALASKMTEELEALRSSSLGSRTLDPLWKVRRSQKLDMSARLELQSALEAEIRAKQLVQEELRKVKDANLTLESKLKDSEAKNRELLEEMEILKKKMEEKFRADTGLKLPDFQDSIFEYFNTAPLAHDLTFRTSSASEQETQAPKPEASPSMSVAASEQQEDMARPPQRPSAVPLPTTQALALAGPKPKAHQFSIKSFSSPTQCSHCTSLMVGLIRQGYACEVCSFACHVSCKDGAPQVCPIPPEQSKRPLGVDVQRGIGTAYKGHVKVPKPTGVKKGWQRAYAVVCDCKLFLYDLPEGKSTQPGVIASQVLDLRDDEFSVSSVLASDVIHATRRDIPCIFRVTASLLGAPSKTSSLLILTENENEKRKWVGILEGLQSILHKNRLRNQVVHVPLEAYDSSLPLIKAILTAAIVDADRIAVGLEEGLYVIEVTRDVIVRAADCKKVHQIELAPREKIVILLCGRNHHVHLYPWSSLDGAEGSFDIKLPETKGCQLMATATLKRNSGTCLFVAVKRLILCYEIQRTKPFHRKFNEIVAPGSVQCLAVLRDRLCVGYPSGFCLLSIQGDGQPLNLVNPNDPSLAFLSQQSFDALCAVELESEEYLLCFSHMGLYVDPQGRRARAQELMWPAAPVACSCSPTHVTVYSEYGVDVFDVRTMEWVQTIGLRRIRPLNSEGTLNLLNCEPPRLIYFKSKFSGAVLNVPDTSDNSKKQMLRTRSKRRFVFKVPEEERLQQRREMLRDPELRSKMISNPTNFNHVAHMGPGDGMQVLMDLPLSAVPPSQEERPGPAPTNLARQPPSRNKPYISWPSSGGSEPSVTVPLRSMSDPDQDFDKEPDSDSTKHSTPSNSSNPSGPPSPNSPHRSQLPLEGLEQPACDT

PAK2 = target: T29, PAK2 (Homo sapiens, UniProt Q13177); test: KINOMEscan; format: binding; details: read-out: Percent Control
T29 construct: purchased Eurofins DiscoverX KINOMEscan (scanMAX 468)

PAK3 = target: T30, PAK3 (Homo sapiens, UniProt O75914); test: KINOMEscan; format: binding; details: read-out: Percent Control
T30 construct: purchased Eurofins DiscoverX KINOMEscan (scanMAX 468)

PIK3C2B = target: T31, PIK3C2B (Homo sapiens, UniProt O00750); test: KINOMEscan; format: binding; details: read-out: Percent Control
T31 construct: purchased Eurofins DiscoverX KINOMEscan (scanMAX 468)

PIM2 = target: T32, PIM2 (Homo sapiens, UniProt Q9P1W9); test: KINOMEscan; format: binding; details: read-out: Percent Control
T32 construct: purchased Eurofins DiscoverX KINOMEscan (scanMAX 468)
T32 sequence (Q9P1W9 whole entry): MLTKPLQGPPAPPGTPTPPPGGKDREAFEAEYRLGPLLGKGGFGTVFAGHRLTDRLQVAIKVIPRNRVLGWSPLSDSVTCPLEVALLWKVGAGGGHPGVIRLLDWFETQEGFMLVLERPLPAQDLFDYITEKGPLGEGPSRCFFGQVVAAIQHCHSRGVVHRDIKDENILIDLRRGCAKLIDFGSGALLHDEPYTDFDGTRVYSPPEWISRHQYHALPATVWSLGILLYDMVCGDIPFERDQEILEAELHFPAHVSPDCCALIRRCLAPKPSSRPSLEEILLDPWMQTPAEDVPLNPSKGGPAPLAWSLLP

RET(M918T) = target: T33, RET(M918T) (Homo sapiens, UniProt P07949, M918T); test: KINOMEscan; format: binding; details: read-out: Percent Control
T33 construct: purchased Eurofins DiscoverX KINOMEscan (scanMAX 468)

RIOK1 = target: T34, RIOK1 (Homo sapiens, UniProt Q9BRS2); test: KINOMEscan; format: binding; details: read-out: Percent Control
T34 construct: purchased Eurofins DiscoverX KINOMEscan (scanMAX 468)

RIOK2 = target: T35, RIOK2 (Homo sapiens, UniProt Q9BVS4); test: KINOMEscan; format: binding; details: read-out: Percent Control
T35 construct: purchased Eurofins DiscoverX KINOMEscan (scanMAX 468)

ROS1 = target: T36, ROS1 (Homo sapiens, UniProt P08922); test: KINOMEscan; format: binding; details: read-out: Percent Control
T36 construct: purchased Eurofins DiscoverX KINOMEscan (scanMAX 468)

[1] = target: T37, RSK1(Kin.Dom.1-N-terminal) (Homo sapiens, UniProt Q15418); test: KINOMEscan; format: binding; details: read-out: Percent Control
T37 construct: RSK1(Kin.Dom.1-N-terminal); purchased Eurofins DiscoverX KINOMEscan (scanMAX 468)

SGK = target: T38, SGK (Homo sapiens, UniProt O00141); test: KINOMEscan; format: binding; details: read-out: Percent Control
T38 construct: purchased Eurofins DiscoverX KINOMEscan (scanMAX 468)

TIE2 = target: T39, TIE2 (Homo sapiens, UniProt Q02763); test: KINOMEscan; format: binding; details: read-out: Percent Control
T39 construct: purchased Eurofins DiscoverX KINOMEscan (scanMAX 468)

[2] = target: T40, TYK2(JH2domain-pseudokinase) (Homo sapiens, UniProt P29597); test: KINOMEscan; format: binding; details: read-out: Percent Control
T40 construct: TYK2(JH2domain-pseudokinase); purchased Eurofins DiscoverX KINOMEscan (scanMAX 468)

Hs_PIM1 = target: T41, Hs_PIM1 (Homo sapiens, UniProt P11309); parameters: method as in ref 13 (a number printed in a supplementary file, which may have a reference list of its own: not looked up in the article's list); details: DB18, cited from earlier work
T41 construct: host or cells: Sf9 insect cells (baculovirus)
T41 sequence (P11309 whole entry): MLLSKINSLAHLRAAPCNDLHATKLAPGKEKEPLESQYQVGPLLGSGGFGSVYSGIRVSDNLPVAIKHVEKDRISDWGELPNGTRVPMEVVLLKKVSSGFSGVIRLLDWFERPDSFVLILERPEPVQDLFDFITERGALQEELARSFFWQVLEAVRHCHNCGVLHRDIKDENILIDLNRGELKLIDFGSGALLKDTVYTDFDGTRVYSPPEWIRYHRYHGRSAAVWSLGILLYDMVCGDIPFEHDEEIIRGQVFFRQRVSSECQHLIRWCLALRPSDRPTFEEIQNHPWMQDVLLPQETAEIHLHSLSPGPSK

T1 sequence (Q04771 21-509): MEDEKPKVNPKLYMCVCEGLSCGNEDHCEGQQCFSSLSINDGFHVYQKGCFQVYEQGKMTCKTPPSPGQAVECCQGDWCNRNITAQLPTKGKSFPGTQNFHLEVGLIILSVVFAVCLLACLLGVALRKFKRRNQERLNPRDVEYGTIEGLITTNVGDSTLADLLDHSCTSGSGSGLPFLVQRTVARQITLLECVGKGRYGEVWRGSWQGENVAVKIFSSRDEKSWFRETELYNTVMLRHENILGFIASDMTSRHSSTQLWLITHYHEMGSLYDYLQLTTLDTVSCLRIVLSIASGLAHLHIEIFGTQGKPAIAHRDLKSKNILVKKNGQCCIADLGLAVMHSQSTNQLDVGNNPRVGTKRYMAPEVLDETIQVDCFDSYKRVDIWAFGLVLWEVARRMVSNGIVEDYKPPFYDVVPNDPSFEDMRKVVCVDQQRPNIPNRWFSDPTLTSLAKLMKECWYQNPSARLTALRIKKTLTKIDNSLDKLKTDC

With `Cc1ccc(-n2cc(COc3cccc4cnc(Nc5cccc(Cl)c5)nc34)nn2)c([N+](=O)[O-])c1` [DB18] the remaining binding at 1 µM (ACVR1) was 100%, the remaining binding at 1 µM (ADCK4) was 100% and the remaining binding at 1 µM (AMPK-alpha2) was 91%. It also gave a remaining binding at 1 µM (CAMK1D) of 100%, a remaining binding at 1 µM (CAMK1G) of 100% and a remaining binding at 1 µM (CDK2) of 100%. For the same compound, the remaining binding at 1 µM (CDK3) was 100%, the remaining binding at 1 µM (CDK4-cyclinD1) was 93% and the remaining binding at 1 µM (CDK7) was 100%. For the same compound, the remaining binding at 1 µM (CSNK2A2) was 61%, the remaining binding at 1 µM (EIF2AK1) was 100% and the remaining binding at 1 µM (EPHA8) was 100%. It also gave a remaining binding at 1 µM (EPHB1) of 100%, a remaining binding at 1 µM (ERBB4) of 100% and a remaining binding at 1 µM (ERK1) of 100%. It also gave a remaining binding at 1 µM (FER) of 100%, a remaining binding at 1 µM (FGFR4) of 100% and a remaining binding at 1 µM (GCN2(Kin.Dom.2,S808G)) of 100%. For the same compound, the remaining binding at 1 µM (GRK1) was 97%, the remaining binding at 1 µM (HUNK) was 90% and the remaining binding at 1 µM (IGF1R) was 100%. For the same compound, the remaining binding at 1 µM (IKK-alpha) was 100%, the remaining binding at 1 µM (IKK-beta) was 100% and the remaining binding at 1 µM (MAP4K2) was 100%. It also gave a remaining binding at 1 µM (MET) of 95%, a remaining binding at 1 µM (MKNK2) of 100% and a remaining binding at 1 µM (MLK1) of 100%. The remaining binding at 1 µM (MRCKB) was 94%, the remaining binding at 1 µM (PAK2) was 100% and the remaining binding at 1 µM (PAK3) was 100%. The remaining binding at 1 µM (PIK3C2B) was 100%, the remaining binding at 1 µM (PIM2) was 100% and the remaining binding at 1 µM (RET(M918T)) was 100%. It also gave a remaining binding at 1 µM (RIOK1) of 100%, a remaining binding at 1 µM (RIOK2) of 100% and a remaining binding at 1 µM (ROS1) of 100%. For the same compound, the remaining binding at 1 µM [1] was 98%, the remaining binding at 1 µM (SGK) was 100% and the remaining binding at 1 µM (TIE2) was 100%. For the same compound, the remaining binding at 1 µM [2] was 100%, the “% of residual activity Hs_PIM1” value (Hs_PIM1; 1 µM) was 97% and the “% of residual activity Hs_PIM1” value (Hs_PIM1; 10 µM) was 81%.
